Laboratory results taken from patent publication US12460003B2, “Methods of assessing and treating cancer in subjects having dysregulated lymphatic systems” (Ensemble Group Holdings, priority 2016, dated 2025).

How the values were obtained:
[1] = tested on: LLC lung cancer or 4T1 breast cancer cells; assay: Example 2: syngeneic tumor models treated with lymphatic system modulator plus immunotherapy or chemotherapy; format: in vivo, syngeneic mice (C57 Black 6 and BALB/c)
Experimental: One to two million cells of either LLC lung cancer or 4T1 breast cancer cells are subcutaneously implanted into syngeneic mice (C57 Black 6 and BALB/c). Animals are treated with vehicle alone as a control, with chemotherapy (cisplatin), or with immunotherapy alone (anti-PD-1 mAb). Animals are imaged by intravascular ultrasound (IVUS), CT/PET, or MRI, for growth of the primary tumor and for metastatic spread of the tumor. Blood samples are obtained for a multiplexed measure of serum biomarkers of lymphatic biology function (Millipore mouse 24 plex; MAGPMAG-24K). Around Study Day 10, animals are injected with 1-1.5 million more tumor cells into the tail vein. Between Study Days 13 and 16, the primary tumor is surgically resected, and animals resume treatment. […]
Animals are imaged weekly, and blood for serum multiplex measurements is continued and evaluated. Survival studies and analyses are performed, and animals are evaluated based on overall survival, progression-free survival, objective and durable response, and serum biomarker measurements. Lung tissue, lymphatics, and regional lymph nodes and tumor tissue are concurrently evaluated upon animal sacrifice for functional immune evaluation and analysis of the tumor and disease analysis.

[2] = tested on: 4T1 and LLC tumor cells, also transfected to overexpress VEGF-C; assay: Example 3: syngeneic 4T1 and LLC models incl. VEGF-C overexpressing tumor cells, lymphangitic carcinomatosis; format: in vivo, syngeneic mice; conditions: preventative treatment, alone or with an immune modulator or chemotherapy
Experimental: The experiments from Example 2 are performed using the same animal models (4T1 and LLC) in syngeneic mice. Another group of tumor cells is transfected to overexpress VEGF-C to stimulate severe lymphatic dysregulation. Overexpression of VEGF C by tumor cells can result in a severe lymphatic dysregulation and an extremely aggressive lymphangitic carcinomatosis, which is a subset of the groups of dysregulated lymphatic disorders resistant to immunotherapy (Example 1). […] In this experiment, it is evaluated whether advanced tumors with inherent lymphatic dysregulation or with exaggerated lymphatic dysregulation driven by VEGF C hyperexpression can be treated and whether treatment can prevent mice with cancers from progressing to severe lymphangitic carcinomatosis.
Treatment groups include (1) anti-PD-1 mAb alone; (2) anti-PD-1-mAb plus lymphatic system modulator (anti-VEGF C or anti-VEGF R3 mAb, or SAR131675); (3) cisplatin alone; (4) lymphatic system modulator (anti-VEGF C or anti-VEGF R3 mAb, or SAR131675) plus cisplatin; and (5) negative control (no treatment).

| SMILES | immunological function ([1]; concurrent with immune modulator (checkpoint inhibitor) or chemotherapy (cisplatin)) | objective and functional outcomes [2] | progression to lymphangitic carcinomatosis [2] | response of animals to single agent ([1]; agent alone) |
| --- | --- | --- | --- | --- |
| CCn1c(N)c(C(=O)NC)c(=O)c2ccc(C#C[C@@](C)(O)COC)nc21 [SAR131675] | functional immunological improvements | significantly improves | no mouse progresses | – |
| N.N.[Cl][Pt][Cl] [cisplatin] | – | – | – | no to marginal response |
